# Assay results from patent publication US11524009B2, “Combination comprising at least one spliceosome modulator and at least one inhibitor chosen from BCL2 inhibitors, BCL2/BCLxL inhibitors, and BCLxL inhibitors and methods of use” (Eisai R&D Management Co., Ltd., priority 2017, dated 2022).
# How the values were obtained:
# Type in all cases: cell-based
# NCIH1568 cells = assay: Growth inhibition, MCL1 rescue by MCL1L cDNA overexpression; conditions: NCIH1568 (MCL1-dependent), Dox-induced MCL1L cDNA vs empty vector
# Excerpt: (§1) BCL-xL shRNA 1 ([…]) (Wei G, et al., 2012, Cancer Cell 21(4): 547-562) was cloned into Agel and EcoRl of the Tet inducible lentiviral pLKO-iKD-H1 puro vector (Wiederschain D, et al., 2009, Cell Cycle 8(3): 498-504). MCL1 shRNA 48 ([…]) (Wei G, et al., 2012, Cancer Cell 21(4): 547-56) was cloned into Agel and EcoRl of the Tet inducible lentiviral pLKO-iKD-U6 puro vector. MCL1-L pENTR-D-TOPO was Gateway cloned (LR clonase, Thermo Fisher Scientific) into pINDUCER20 (Meerbrey K L, et al., 2011, Proc Natl Acad Sci USA. 108(9):3665-3670). Lentiviruses were prepared in LentiX-293T cells. […]
# (§2) For compound dose response experiments, cells were plated in 96 or 384 well plates at 1,000 cells in 50 μl per well. […] At t=0, untreated cells were lysed with CellTiter-Glo and measured on an Envision plate reader. At t=72 (72 hours after compound addition), cells treated with compound were lysed with CellTiter-Glo and analyzed on Envision. The luminescence value from each treatment sample was normalized to the average value of the respective DMSO control. […]
# A549 cells = assay: Growth inhibition with or without Dox-induced knockdown of BCLxL
# Excerpt: as §1, §2
# [1] = system: MCL1 gene splicing in NCIH1568 cells; assay: Quantitative RT-PCR detection of MCL1 mRNAs (splicing modulation); conditions: six-hour treatment, qRT-PCR
# Procedure: RNA lysates were isolated from cells treated with compounds in 96 well plates and reverse transcribed using TaqMan Gene Expression Cells-to-CT Kit (Thermo Fisher Scientific) according to manufacturer's instruction. Quantitative PCR was performed using TaqMan Gene Expression Master Mix (Thermo Fisher Scientific) with MCL1 transcript probes (Integrated DNA technologies FAM-ZEN/IBFQ) duplexed with 18S rRNA VIC-PL (Thermo Fisher Scientific assay ID Hs99999901_s1) and quantified using the ΔΔCt method.
# [2] = system: MCL1 protein in NCIH1568 cells; assay: Western Blot Analysis of MCL1L, truncated MCL1 and cleaved PARP; conditions: 6 hours
# Procedure: Cell lines were lysed in RIPA buffer (Boston BioProducts) plus protease-inhibitor cocktail (Mini-complete, EDTA-free, Roche) and phosphatase inhibitor PhosSTOP (Roche). Lysates were diluted in RIPA buffer with 4×LDS Sample Buffer (Nupage, Thermo Fisher Scientific) and 10× Reducing Reagent (Nupage, Thermo Fisher Scientific) and boiled for 5 minutes. Twenty five micrograms of protein were loaded per well in 4-12% Bis-Tris SDS Page gels (Novex, Thermo Fisher Scientific). Gels were transferred to nitrocellulose membranes using iBlot system (Thermo Fisher Scientific). Membranes were blocked in blocking buffer (1× Tris-Buffered Saline+0.1% Tween-20 (Boston Bioproducts)+5% Non-Fat Dry Milk (Bio-Rad)) for 1 hour and then cut. Each section was probed separately with antibodies to each of the following proteins in blocking buffer: MCL1 (Cell Signaling Technologies 5453) (D35A5) rabbit monoclonal diluted 1:500, BCL-xL (Cell Signaling Technologies 2764) (54H6) rabbit monoclonal diluted 1:500, Cleaved Parp (Cell Signaling Technologies 5625) (D64P10) rabbit monoclonal diluted 1:500, and GAPDH (Sigma G8795) mouse monoclonal at 100 ng/mL. Blots were incubated with primary antibodies dilutions shaking at 4° C. overnight. Western blots were then blotted either with Odyssey Licor or HRP secondary antibodies. Blots were then washed four times using wash buffer (1× Tris-Buffered Saline+0.1% Tween-20). Blots imaged using Licor were probed shaking at room temperature for 1 hour with Licor IR-labeled secondary antibodies, IRDye® 800CW Goat anti-Rabbit IgG (Odyssey 925-32211) and IRDye® 680LT Goat anti-Mouse IgG (Odyssey 925-68020) diluted 1:10,000 in blocking buffer. Blots were then washed three times with wash buffer. IR-dye detection was performed using the Licor imaging system (Odyssey) according to manufacturer's instruction. Blots imaged using HRP were probed shaking at room temperature for 1 hour with Anti-mouse IgG, HRP-linked Antibody (Cell Signaling Technologies 7076) and Anti-rabbit IgG, HRP-linked Antibody (Cell Signaling Technologies 7074) diluted 1:5000 in blocking buffer. […]
smiles,measurement,setting,value
"CC[C@H](O)[C@@H](C)[C@H]1O[C@@H]1C[C@@](C)(O)/C=C/C=C(\C)[C@H]1OC(=O)C[C@H](O)CC[C@@](C)(O)[C@@H](OC(=O)N2CCN(C3CCCCCC3)CC2)/C=C/[C@@H]1C [E7107, (8E,12E,14E)-7-((4-Cycloheptylpiperazin-1-yl)carbonyl)oxy-3,6,16,21-tetrahydroxy-6,10,12,16,20-pentamethyl-18,19-epoxytricosa-8,12,14-trien-11-olide]",cell death with cDNA overexpression of MCL1L,NCIH1568 cells,rescued the cell death
same,growth inhibition,"A549 cells; A549 (MCL1-independent), without BCLxL knockdown",cytostatic inhibition
same,growth inhibition,"A549 cells; A549, inducible knockdown of BCLxL (Dox)",clear cell death
same,MCL1L mRNA,[1],robust reduction
same,MCL1S mRNA,[1],transient expression
same,MCL1 pre-mRNA with intron-retention,[1],continuous induction
same,cleaved PARP protein (indicator of apoptosis),[2],induction
same,full length MCL1 protein,[2],dose-dependent downregulation
same,truncated short-form MCL1 protein product,[2],increased in a dose-dependent manner
